Measured values taken from patent publication US10626081B2, “Farnesoid X receptor agonists and uses thereof” (Metacrine, Inc., priority 2015, dated 2020).

molecular target: T1, FXR (Homo sapiens, UniProt Q96RI1); assay: In Vitro FXR Assay (TK): TK-ECRE-luc reporter in transfected CV-1 cells; type: cell-based; conditions: CV-1 cells transfected with hFXR, hRXR, 18 h incubation, luminescence
T1 construct: expressed in transfected cells; host or cells: CV-1 cells
T1 sequence (Q96RI1 1-486): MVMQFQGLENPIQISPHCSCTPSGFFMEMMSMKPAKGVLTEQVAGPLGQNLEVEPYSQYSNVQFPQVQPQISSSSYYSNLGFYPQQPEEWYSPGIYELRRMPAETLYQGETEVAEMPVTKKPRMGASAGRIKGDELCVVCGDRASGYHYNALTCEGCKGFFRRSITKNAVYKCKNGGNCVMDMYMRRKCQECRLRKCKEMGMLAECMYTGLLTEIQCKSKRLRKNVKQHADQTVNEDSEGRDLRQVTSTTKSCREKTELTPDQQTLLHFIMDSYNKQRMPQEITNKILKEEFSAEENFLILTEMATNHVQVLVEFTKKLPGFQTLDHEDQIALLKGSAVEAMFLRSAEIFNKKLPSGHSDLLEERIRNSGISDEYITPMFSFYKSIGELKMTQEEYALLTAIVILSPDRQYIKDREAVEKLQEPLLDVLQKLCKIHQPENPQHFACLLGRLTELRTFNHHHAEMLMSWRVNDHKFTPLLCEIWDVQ
T1 sequence (P19793 1-462 partner): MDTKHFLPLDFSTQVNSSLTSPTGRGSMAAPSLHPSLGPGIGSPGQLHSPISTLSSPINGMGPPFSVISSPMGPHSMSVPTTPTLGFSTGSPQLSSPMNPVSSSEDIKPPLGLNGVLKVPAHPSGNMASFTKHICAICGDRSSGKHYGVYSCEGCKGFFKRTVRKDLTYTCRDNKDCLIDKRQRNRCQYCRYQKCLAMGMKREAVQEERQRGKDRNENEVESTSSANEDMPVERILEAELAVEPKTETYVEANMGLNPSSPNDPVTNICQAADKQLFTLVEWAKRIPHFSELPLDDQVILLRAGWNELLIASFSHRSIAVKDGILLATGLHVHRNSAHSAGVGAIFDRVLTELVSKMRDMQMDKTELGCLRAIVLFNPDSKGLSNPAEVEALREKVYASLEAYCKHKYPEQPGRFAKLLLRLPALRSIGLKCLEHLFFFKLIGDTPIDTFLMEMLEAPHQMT
Procedure: Example B-2: In Vitro FXR Assay (TK)
CV-1 cells were seeded at a density of 2,000,000 cells in a T175 flask with DMEM+10% charcoal double-stripped FBS and incubated at 37° C. in 5% CO2 for 18 h (O/N).
After 18 h of incubation, the medium in the T175 flask was changed with fresh DMEM+10% charcoal super-stripped serum. In a polypropylene tube, 2500 μL OptiMEM (Life Technologies, Cat #31985-062) was combined with expression plasmids for hFXR, hRXR, TK-ECRE-luc and pCMX-YFP. The tube was then briefly vortexed and incubated at room temperature for 5 minutes. Transfection reagent (X-tremeGENE HP from Roche, Cat #06 366 236 001) was added to the OptiMEM/plasmid mixture vortexed and incubated at room temperature for 20 minutes. Following incubation, the transfection reagent/DNA mixture complex was added to cells in the T175 flask and the cells were incubated at 37° C. in 5% CO2 for 18 h (O/N).
Compounds were serially diluted in DMSO and added to transfected CV-1 cells. The cells were then incubated for 18 hrs. The next day cells were lysed and examined for luminescence.

| EC50 | SMILES |
| --- | --- |
| > 10000 nM | COC(=O)/C=C/c1cccc(N(Cc2ccc(-c3ccc(CO)cc3)cc2)C(=O)C2CCCCC2)c1 [62.7, (E)-Methyl 3-(3-(N-((4′-(hydroxymethyl)-[1,1′-biphenyl]-4-yl)methyl)cyclohexanecarboxamido)phenyl) acrylate] |
| ≤ 1000 nM | COC(=O)/C=C/c1cccc(N(Cc2ccc(-c3ccc4scnc4c3)cc2)C(=O)C2CCCCC2)c1 [75.14, (E)-Methyl 3-(3-(N-(4-(benzo[d]thiazol-5-yl)benzyl)cyclohexanecarboxamido)phenyl) acrylate] |
| 1000 to 10000 nM | COC(=O)/C=C/c1cccc(N(Cc2ccc(-c3ccc(OC)c(C)c3)cc2)C(=O)c2ccncc2)c1 [62.1, (E)-Methyl 3-(3-(N-((4′-methoxy-3′-methyl-[1,1′-biphenyl]-4-yl)methyl)isonicotinamido)phenyl)acrylate] |
| > 10000 nM | CN(C)c1ccc(-c2ccc(CN(C(=O)C3CCCCC3)c3cccc(/C=C/C(=O)OCc4ccccc4)c3)cc2)cc1 [86.7, (E)-Benzyl 3-(3-(N-((4′-(dimethylamino)-[1,1′-biphenyl]-4-yl)methyl)cyclohexanecarboxamido)phenyl) acrylate] |
| > 10000 nM | CC(C)COC(=O)/C=C/c1cccc(N(Cc2ccc(-c3ccc(N(C)C)cc3)cc2)C(=O)C2CCCCC2)c1 [86.2, (E)-Isobutyl 3-(3-(N-((4′-(dimethylamino)-[1,1′-biphenyl]-4-yl)methyl)cyclohexanecarboxamido)phenyl) acrylate] |
| ≤ 1000 nM | COC(=O)/C=C/c1cccc(N(Cc2ccc(-c3ccc(N(C)C)cc3)cc2)C(=O)c2ccccc2OC)c1 [13.7, (E)-Methyl 3-(3-(N-((4′-(dimethylamino)-[1,1′-biphenyl]-4-yl)methyl)-2-methoxybenzamido)phenyl)acrylate] |
| 1000 to 10000 nM | COC(=O)/C=C/c1cccc(N(Cc2ccc(-c3ccc(N(C)C)cc3)cc2)C(=O)C2CN(S(C)(=O)=O)C2)c1 [13.11, (E)-Methyl 3-(3-(N-((4′-(dimethylamino)-[1,1′-biphenyl]-4-yl)methyl)-1-(methylsulfonyl)azetidine-3-carboxamido)phenyl)acrylate] |
| 1000 to 10000 nM | COC(=O)/C=C/c1cccc(N(Cc2ccc(-c3ccc(S(C)(=O)=O)cc3)cc2)C(=O)C2CCCCC2)c1 [62.4, (E)-Methyl 3-(3-(N-((4′-(methylsulfonyl)-[1,1′-biphenyl]-4-yl)methyl)cyclohexanecarboxamido)phenyl) acrylate] |
| ≤ 1000 nM | COC(=O)/C=C/c1cccc(N(Cc2ccc(-c3ccc4c(C)nsc4c3)cc2)C(=O)C2CCCCC2)c1 [75.19, (E)-Methyl 3-(3-(N-(4-(3-methylbenzo[d]isothiazol-6-yl)benzyl)cyclohexanecarboxamido)phenyl) acrylate] |
| 1000 to 10000 nM | COC(=O)/C=C/c1cccc(N(Cc2ccc(-c3ccc(OC)c(C)c3)cc2)C(=O)C2CCN(S(C)(=O)=O)CC2)c1 [62.17, (E)-Methyl 3-(3-(N-((4′-methoxy-3′-methyl-[1,1′-biphenyl]-4-yl)methyl)-1-(methylsulfonyl)piperidine-4-carboxamido)phenyl)acrylate] |
| 1000 to 10000 nM | COC(=O)/C=C/c1cccc(N(Cc2ccc(-c3ccc4ocnc4c3)cc2)C(=O)C2CCCCC2)c1 [75.11, (E)-Methyl 3-(3-(N-(4-(benzo[d]oxazol-5-yl)benzyl)cyclohexanecarboxamido)phenyl) acrylate] |
| 1000 to 10000 nM | COC(=O)/C=C/c1cccc(N(Cc2ccc(-c3ccc(S(C)(=O)=O)cc3F)cc2)C(=O)C2CCCCC2)c1 [75.8, (E)-Methyl 3-(3-(N-((2′-fluoro-4′-(methylsulfonyl)-[1,1′-biphenyl]-4-yl)methyl)cyclohexanecarboxamido)phenyl) acrylate] |
| 1000 to 10000 nM | CCc1cc(CN(C(=O)C2CCCCC2)c2cccc(/C=C/C(=O)OC)c2)ccc1-c1ccc(N(C)C)cc1 [62.13, (E)-Methyl 3-(3-(N-((4′-(dimethylamino)-2-ethyl-[1,1′-biphenyl]-4-yl)methyl)cyclohexanecarboxamido)phenyl) acrylate] |
| 1000 to 10000 nM | COC(=O)/C=C/c1cccc(N(Cc2ccc(-c3ccc(N(C)C)cc3)cc2)C(=O)[C@@H]2CCCC[C@H]2O)c1 (relative stereo) [13.25, trans-(E)-Methyl 3-(3-(N-((4′-(dimethylamino)-[1,1′-biphenyl]-4-yl)methyl)-2-hydroxycyclohexanecarboxamido)phenyl)acrylate] |
| ≤ 1000 nM | COC(=O)/C=C/c1cccc(N(Cc2ccc(-c3ccc(N(C)C)cc3)cc2)C(=O)c2ccc(OCCO)cc2)c1 [13.22, (E)-Methyl 3-(3-(N-((4′-(dimethylamino)-[1,1′-biphenyl]-4-yl)methyl)-4-(2-hydroxyethoxy)benzamido)phenyl)acrylate] |
| > 10000 nM | COC(=O)/C=C/c1cccc(N(Cc2ccc(-c3ccc(S(C)(=O)=O)c(F)c3)cc2)C(=O)C2CCCCC2)c1 [75.7, (E)-Methyl 3-(3-(N-((3′-fluoro-4′-(methylsulfonyl)-[1,1′-biphenyl]-4-yl)methyl)cyclohexanecarboxamido)phenyl) acrylate] |
| 1000 to 10000 nM | COC(=O)/C=C/c1cccc(N(Cc2ccc(-c3ccc(N(C)C)cc3)cc2)C(=O)C2(C)CCCCC2)c1 [13.3, (E)-Methyl 3-(3-(N-((4′-(dimethylamino)-[1,1′-biphenyl]-4-yl)methyl)-1-methylcyclohexane-carboxamido)phenyl)acrylate] |
| 1000 to 10000 nM | COC(=O)/C=C/c1cccc(N(Cc2ccc(-c3ccc(N(C)C)cc3)cc2)C(=O)[C@H]2CC[C@@H](S(C)(=O)=O)CC2)c1 [13.14, cis-(E)-Methyl 3-(3-(N-((4′-(dimethylamino)-[1,1′-biphenyl]-4-yl)methyl)-4-(methylsulfonyl)cyclohexanecarboxamido)phenyl)acrylate] |
| 1000 to 10000 nM | COC(=O)/C=C/c1cccc(N(Cc2ccc(-c3ccc4ncsc4c3)cc2)C(=O)C2CCCCC2)c1 [75.9, (E)-Methyl 3-(3-(N-(4-(benzo[d]thiazol-6-yl)benzyl)cyclohexanecarboxamido)phenyl) acrylate] |
| ≤ 1000 nM | COC(=O)/C=C/c1cc(Cl)cc(N(Cc2ccc(-c3ccc(N(C)C)cc3)cc2)C(=O)C2CCCCC2)c1 [86.10, (E)-Methyl 3-(3-chloro-5-(N-((4′-(dimethylamino)-[1,1′-biphenyl]-4-yl)methyl)cyclohexanecarboxamido)phenyl) acrylate] |
| 1000 to 10000 nM | COC(=O)/C=C/c1cccc(N(Cc2ccc(-c3ccc(N(C)C)cc3)cc2)C(=O)c2ccc(OCCN3CCOCC3)cc2)c1 [13.12, (E)-Methyl 3-(3-(N-((4′-(dimethylamino)-[1,1′-biphenyl]-4-yl)methyl)-4-(2-morpholinoethoxy)benzamido)phenyl)acrylate] |
| ≤ 1000 nM | COC(=O)/C=C/c1cccc(N(Cc2ccc(-c3ccc(N(C)C)cc3)cc2)C(=O)[C@H]2CC[C@H](C(=O)O)CC2)c1 [13.16, trans-4-(((4′-(Dimethylamino)-[1,1′-biphenyl]-4-yl)methyl)(3-((E)-3-methoxy-3-oxoprop-1-en-1-yl)phenyl)carbamoyl) cyclohexanecarboxylic acid] |
| 1000 to 10000 nM | COC(=O)/C=C/c1cccc(N(Cc2ccc(-c3ccc(N(C)C)cc3)cc2)C(=O)c2cccc(OC)c2)c1 [13.10, (E)-Methyl 3-(3-(N-((4′-(dimethylamino)-[1,1′-biphenyl]-4-yl)methyl)-3-methoxybenzamido)phenyl)acrylate] |
| > 10000 nM | COC(=O)/C=C/c1cccc(N(Cc2ccc(-c3ccc(N(C)C)cc3)cc2)C(=O)[C@H]2CC[C@H](N)CC2)c1 [compound 97, (E)-Methyl 3-(3-(trans-4-amino-N-((4′-(dimethylamino)-[1,1′-biphenyl]-4-yl)methyl)cyclohexanecarboxamido)phenyl) acrylate] |
| 1000 to 10000 nM | COC(=O)/C=C/c1cccc(N(Cc2ccc(-c3ccc(N(C)C)cc3)cc2)C(=O)C2CCC(=O)NC2)c1 (stereo not shown) [13.17, (E)-Methyl 3-(3-(N-((4′-(dimethylamino)-[1,1′-biphenyl]-4-yl)methyl)-6-oxopiperidine-3-carboxamido)phenyl)acrylate] |
